The values that follow come from patent US12599640B2, “Lactobacillus plantarum ZUST49 and bacterial agent, and use thereof” (ZHEJIANG UNIVERSITY OF SCIENCE AND TECHNOLOGY, priority 2023, dated 2026).

A short description of this series: Production of sulforaphane by feeding mice with enteric capsule (plasma sulforaphane, cyclocondensation method). The series is classed as in vivo. Particulars: mouse plasma; intragastric glucoraphanin aqueous solution, 150 μmol of glucoraphanin/kg; blood taken at 0 h and 12 h. An excerpt:
C57BL/6 male mice of 6 to 8 weeks were pre-reared for 1 week and randomly divided into an enteric capsule group, a glucoraphanin group, and a blank group. Mice in the enteric capsule group were intragastrically administered daily with an enteric capsule aqueous solution containing Lactobacillus plantarum ZUST49 and glucoraphanin (150 μmol of glucoraphanin/kg and ZUST49 content of 8.7×10^5 CFU/g, and prepared according to the method of example 3). The mice in the glucoraphanin group were intragastrically administrated with a glucoraphanin aqueous solution (150 μmol of glucoraphanin/kg). The mice were fed with food and water ad libitum. Food intake and weight were recorded daily. The mice were deeply anesthetized with an intraperitoneal injection of ketamine/xylazine (87 mg/mL and 13 mg/mL respectively, and 0.1 mL/100 g mice) at 0 h and 12 h (6 mice/group each time period), and put to death by cervical dislocation after blood collection by cardiac puncture. The sulforaphane content in plasma of the mice was determined by a cyclocondensation method.

With `C[S+]([O-])CCCC/C(=N\OS(=O)(=O)O)S[C@@H]1O[C@H](CO)[C@@H](O)[C@H](O)[C@H]1O` (stereo partly shown) [glucoraphanin], the “sulforaphane content in the plasma of the mice” value turned out to be 0.017 ± 0.030 µM.
